Experimental data: paper PMC3914206

Tests used:
[1] = target: T1, panel of 442 kinases (Homo sapiens, UniProt Q8IW41); type: binding; conditions: Compound Concentration 10 µM
T1 construct: purchased KINOMEscan
T1 sequence (Q8IW41 1-473): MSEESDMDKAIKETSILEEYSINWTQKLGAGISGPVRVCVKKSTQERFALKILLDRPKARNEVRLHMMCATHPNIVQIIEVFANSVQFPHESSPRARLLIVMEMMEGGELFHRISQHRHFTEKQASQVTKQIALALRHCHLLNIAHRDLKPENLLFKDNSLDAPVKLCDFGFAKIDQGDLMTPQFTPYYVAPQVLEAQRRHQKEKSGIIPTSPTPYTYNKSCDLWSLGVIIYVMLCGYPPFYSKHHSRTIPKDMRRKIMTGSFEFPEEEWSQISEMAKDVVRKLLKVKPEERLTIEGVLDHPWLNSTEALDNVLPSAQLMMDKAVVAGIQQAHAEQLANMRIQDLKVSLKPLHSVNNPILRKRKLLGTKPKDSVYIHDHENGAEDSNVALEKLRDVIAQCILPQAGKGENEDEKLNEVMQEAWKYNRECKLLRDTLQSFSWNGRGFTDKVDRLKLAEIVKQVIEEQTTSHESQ
Text: (§1) We assessed the selectivity of members of this scaffold using the KINOMEscan methodology across a near comprehensive panel of 442 kinases [[18,27]].

[2] = target: T2, panel of 442 kinases (Homo sapiens, UniProt Q04912); type: binding; conditions: Compound Concentration 10 µM
T2 construct: purchased KINOMEscan
Text: as §1

T2 sequence (Q04912 25-1400): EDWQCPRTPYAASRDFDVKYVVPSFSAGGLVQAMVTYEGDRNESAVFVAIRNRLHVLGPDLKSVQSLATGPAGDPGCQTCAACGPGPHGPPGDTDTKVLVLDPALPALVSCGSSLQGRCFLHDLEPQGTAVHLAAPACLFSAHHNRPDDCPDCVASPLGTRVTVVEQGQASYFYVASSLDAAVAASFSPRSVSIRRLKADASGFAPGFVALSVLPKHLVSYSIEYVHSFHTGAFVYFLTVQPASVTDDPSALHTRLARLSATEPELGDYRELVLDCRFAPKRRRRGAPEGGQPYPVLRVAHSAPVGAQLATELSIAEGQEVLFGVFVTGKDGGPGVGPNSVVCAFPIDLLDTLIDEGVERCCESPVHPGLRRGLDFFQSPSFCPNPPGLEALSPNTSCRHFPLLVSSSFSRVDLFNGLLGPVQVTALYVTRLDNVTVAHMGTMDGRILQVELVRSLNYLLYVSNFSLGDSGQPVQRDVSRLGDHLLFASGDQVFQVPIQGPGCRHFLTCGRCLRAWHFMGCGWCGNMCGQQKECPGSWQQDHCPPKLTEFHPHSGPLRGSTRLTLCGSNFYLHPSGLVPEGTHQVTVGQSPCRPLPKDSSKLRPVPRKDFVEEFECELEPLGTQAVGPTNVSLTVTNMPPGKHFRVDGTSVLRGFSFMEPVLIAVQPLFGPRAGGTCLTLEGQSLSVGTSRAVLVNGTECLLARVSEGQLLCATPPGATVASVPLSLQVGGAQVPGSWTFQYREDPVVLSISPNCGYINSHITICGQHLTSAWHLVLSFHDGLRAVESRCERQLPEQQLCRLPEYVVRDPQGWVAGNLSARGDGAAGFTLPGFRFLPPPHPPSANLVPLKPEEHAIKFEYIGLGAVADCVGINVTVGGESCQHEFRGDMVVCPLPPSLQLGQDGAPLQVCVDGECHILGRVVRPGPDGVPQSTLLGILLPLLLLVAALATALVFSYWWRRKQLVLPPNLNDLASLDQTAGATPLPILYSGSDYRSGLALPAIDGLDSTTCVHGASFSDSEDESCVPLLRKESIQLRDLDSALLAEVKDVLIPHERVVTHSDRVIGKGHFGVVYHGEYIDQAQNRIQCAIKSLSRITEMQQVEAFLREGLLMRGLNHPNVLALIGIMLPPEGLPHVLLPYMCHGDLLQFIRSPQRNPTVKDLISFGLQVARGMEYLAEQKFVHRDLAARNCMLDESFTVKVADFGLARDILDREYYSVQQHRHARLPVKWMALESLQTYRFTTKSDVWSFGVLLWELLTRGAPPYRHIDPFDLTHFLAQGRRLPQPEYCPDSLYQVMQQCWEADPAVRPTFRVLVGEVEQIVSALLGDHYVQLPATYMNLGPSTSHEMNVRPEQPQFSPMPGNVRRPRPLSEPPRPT

SMILES: CCOc1cc(C(=O)N2CCC(N3CCN(C)CC3)CC2)ccc1Nc1ncc2c(n1)N(C1CCCC1)c1ccccc1C(=O)N2C [Compound 26]
- KINOMEscan: MAPKAPK5 [1]: 100
- KINOMEscan: MST1R [2]: 100

SMILES: COc1cc(C(=O)N2CCC(N3CCN(C)CC3)CC2)ccc1Nc1ncc2c(n1)N(C)c1ccccc1C(=O)N2C [15 (LRRK2-IN-1)]
- KINOMEscan: MAPKAPK5 [1]: 97
- KINOMEscan: MST1R [2]: 98

SMILES: COc1cc(C(=O)N2CCC(N3CCN(C)CC3)CC2)ccc1Nc1ncc2c(n1)N(C1CCCC1)c1ccccc1C(=O)N2C [Compound 25, 11-cyclopentyl-2-((2-methoxy-4-(4-(4-methylpiperazin-1-yl)piperidine-1-carbonyl)phenyl)amino)-5-methyl-5H-benzo[e]pyrimido[5,4-b][1,4]diazepin-6(11H)-one]
- KINOMEscan: MAPKAPK5 [1]: 96
- KINOMEscan: MST1R [2]: 100
